Reference: patent US20130023485A1, “PARENTERAL FORMULATIONS OF PEPTIDES FOR THE TREATMENT OF SYSTEMATIC LUPUS ERYTHEMATOSUS” (Teva Pharmaceutical Industries, Ltd., priority 2003, published 2013)

Assay: Solubility of Compound 1 with solubility enhancers (visual examination and analytical assay)

Q: What does the source list for H-GYYWSWIRQPPGKGEEWIG-OH [Compound 1]?
A: solubility (30% (w/w) PEG 400): 5000 to 9000 µg/mL; solubility (30% DMA (dimethyl-acetamide) solution): 5000 to 9000 µg/mL; solubility (Human Serum Albumin solution): 1000 µg/mL; solubility (Hydroxypropyl-β-cyclodextrin solution): ~10000 µg/mL; solubility (L-Arginine, resulting pH above 9): at the desired level; solubility (Polysorbate 20 / Polysorbate 80 solution, up to 10%): ≤ 2000 µg/mL; solubility (Sulfobutylether-β-cyclodextrin (Captisol) solution): ~2500 µg/mL; effect on solubility (bulking agents Mannitol, Sorbitol, Dextran, alone and combined): did not improve the solubility; stability versus pH (initial tests, limits of desired pH levels): less stable at the basic pH range; effect on solubility (non aqueous solvents Ethanol, Glycerin, Propylene glycol, Chremophore and combinations): did not increase the solubility
